Twelve molecules from patent US4959363A, “Quinolonecarboxamide compounds, their preparation and use as antivirals” (Sterling Drug Inc., priority 1989, dated 1990) can be followed below.

Data set [1] is described as follows: In vitro maximum tolerated dose (MTL), Vero cells. The data set is classed as cell-based, African Green Monkey. To be noted: monkey, vero cells, In Vitro.
Data set [2] has as its system herpes simplex virus. Description: In Vivo - Intravaginal Herpes Virus Infection in Mice. To be noted: Mus musculus, 336 h, oral or intraperitoneal, b.i.d. 5 days, NA = Not active at dose levels tested, read-out: In Vivo MED (Minimum effective dose). More on the design: species or system albino mice. As for the experimental part: In Vivo - Intravaginal Herpes Virus Infection in Mice
Approximately 1 hr. prior to infection, the vaginas of 15 gm albino mice were swabbed with cotton saturated with 0.1 N NaOH to remove vaginal secretions and to irritate the vaginal mucosa slightly. At the proper time, 0.05 ml of an appropriate dose of herpes simplex virus was placed deep in the vagina. Starting 2.5 hrs. prior to infection, the mice were medicated either orally or intraperitoneally. Medication was continued daily for a total of 5 days on a b.i.d. regimen. The test was terminated after 14 days. A comparison of the number of surviving mice and/or extension of survival was made at the end of the test. The criterion for activity was a statistically significant extension of the average survival time of the test group over that of the control mice in two experiments.

Details of data set [3]: species or system albino mice. To be noted: mouse.
Data set [4] has as its system Vero (African Green Monkey Kidney) cells. Description: In vitro maximum tolerated dose (MTL), Vero cells. The data set is classed as cell-based.

`NC(=O)c1c(N)n(-c2ccc(F)cc2)c2cc(-c3ccncc3)ccc2c1=O` [Example 41c, 2-Amino-1,4-dihydro-1-(4-fluorophenyl)-4-oxo-7-(4-pyriridinyl)-3-quinolinecarboxamide] displayed an MNTC at 72 h in data set [1] greater than 100 µg/mL. Also, in data set [2], the minimal effective dose is 50 mg/kg/day. Moreover, the “In Vivo MTL (Maximum tolerated dose)” value in data set [3] is recorded as 100.
In the case of `NC(=O)c1cn(-c2ccccc2)c2cc(-c3ccncc3)ccc2c1=O` [Example 45e, 1,4-Dihydro-4-oxo-1-phenyl-7-(4-pyridinyl)-3-quinolinecarboxamide], in data set [4] (In Vitro, Vero cells, 4320 min), the “In Vitro MTL (Maximum tolerated dose)” value was greater than 6.25. The minimal effective dose in data set [2] is 25 mg/kg/day. In addition, the “In Vivo MTL (Maximum tolerated dose)” value in data set [3] is listed as 50.
The molecule `CCn1cc(C(=O)NC)c(=O)c2ccc(-c3ccncc3)cc21` [Example 28, 1-Ethyl-1,4-dihydro-N-methyl-4-oxo-7-(4-pyridinyl)-3quinolinecarboxamide] registered an MNTC at 72 h in data set [1] greater than 25 µg/mL. For the same molecule, the minimal effective dose in data set [2] was 50 mg/kg/day. In addition, the “In Vivo MTL (Maximum tolerated dose)” value in data set [3] amounted to 50.
Take `CCN(CC)CNC(=O)c1cn(-c2ccc(F)cc2)c2cc(-c3ccncc3)ccc2c1=O` [Example 3, N-(Diethylaminomethyl)-1-(4-fluorophenyl)-1,4-dihydro-4-oxo-7-(4-pyridinyl)-3-quinolinecarboxamide]: in data set [1], the MNTC at 72 h was 12.5 µg/mL. For the same molecule, in data set [2], the minimal effective dose is 50 mg/kg/day. Also, in data set [3], the “In Vivo MTL (Maximum tolerated dose)” value came to 100.
On to “1,4-Dihydro-1-(4-fluorophenyl)-7-(3-methyl-5-thiazolyl)-4-oxo-3-quinolinecarboxamide [Example 37d]”, for which, in data set [4] (monkey, vero cells, 72 h), the “In Vitro MTL (Maximum tolerated dose)” value is reported as greater than 100. In addition, the “In Vivo MTL (Maximum tolerated dose)” value in data set [3] is on record as greater than 100.
On to `CCn1cc(C(N)=O)c(=O)c2ccc(-c3ccncc3)cc21` [Example 6, 1-Ethyl-1,4-dihydro-4-oxo-7-(4-pyridinyl)-3-quinolinecarboxamide], for which the MNTC at 72 h in data set [1] is 12.5 µg/mL. The minimal effective dose in data set [2] worked out at 50 mg/kg/day. Also, the “In Vivo MTL (Maximum tolerated dose)” value in data set [3] was determined as 50.
For the molecule `NC(=O)c1cn(-c2ccncc2)c2cc(-c3ccncc3)ccc2c1=O` [Example 10, 1,4-Dihydro-4-oxo-1,7-di(4-pyridinyl)-3-quinolinecarboxamide], the MNTC at 72 h in data set [1] is greater than 200 µg/mL. For the same molecule, the minimal effective dose in data set [2] was 50 to 75 mg/kg/day. In addition, in data set [3], the “In Vivo MTL (Maximum tolerated dose)” value amounted to 75.
Consider `NC(=O)c1cn(-c2ccc(F)cc2)c2cc(-c3cc[n+]([O-])cc3)ccc2c1=O` [Example 2, 1-(4-Fluorophenyl)-1,4-dihydro-4-oxo-7-(N-oxide-4-pyridinyl)-3-quinolinecarboxamide], for which the MNTC at 72 h in data set [1] is greater than 12.5 µg/mL. For the same molecule, the minimal effective dose in data set [2] came to 25 mg/kg/day. In addition, in data set [3], the “In Vivo MTL (Maximum tolerated dose)” value worked out at 100.
On the same counts, the results for `NC(=O)c1cn(-c2ccc(Br)cc2)c2cc(-c3ccncc3)ccc2c1=O` [Example 31, 1-(4-Bromophenyl)-1,4-dihydro-7-(4-pyridinyl)-4-oxo-3quinolinecarboxamide] are greater than 12.5 µg/mL, 50 mg/kg/day and 50.
On the same counts, the results for `NC(=O)c1cn(-c2cccc(F)c2)c2cc(-c3ccncc3)ccc2c1=O` [Example 46e, 1,4-Dihydro-1-(3-fluorophenyl)-4-oxo-7-(4-pyridinyl)3-quinolinecarboxamide] are greater than 6.25 µg/mL, 25 to 50 mg/kg/day and 50.
In turn, `Cn1c(O)c(C(N)=O)c(=O)c2ccc(-c3ccncc3)cc21` [Example 39b, 1,4-Dihydro-2-hydroxy-1-methyl-4-oxo-7-(4-pyridinyl)3-quinolinecarboxamide] displayed an MNTC at 72 h in data set [1] of 3.1 µg/mL. In data set [2], the minimal effective dose was in the range of 150 to 200 mg/kg/day. The “In Vivo MTL (Maximum tolerated dose)” value in data set [3] was found to be 150.
In data set [1], `NC(=O)c1cn(-c2ccc(F)cc2)c2cc(-c3ccncc3)ccc2c1=O` [Example 1h, 1-(4-fluorophenyl)-1,4-dihydro-4-oxo-7-(4-pyridinyl)-3-quinolinecarboxamide] came in with an MNTC at 72 h greater than 3.1 µg/mL. Further, the minimal effective dose in data set [2] was 12.5 to 25 mg/kg/day. In addition, in data set [3], the “In Vivo MTL (Maximum tolerated dose)” value is given as 50-100.
